Like-named read-outs stand apart in the source and are kept apart here.
How the values were obtained:
TbrCatL = target: T1, TbrCatL (Trypanosoma brucei rhodesiense, UniProt Q95PM0); test: TbrCatL enzymatic inhibition assay (cleavage of fluorogenic substrate Z-FR-AMC); assay type: biochemical
T1 construct: Conor Caffrey (University of California San Diego)
Summary of the method: (§1)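 Recombinant enzymes assayed by Z-Phe-Arg-AMC cleavage at 25 °C, fluorescence 340/440 nm over 5–7 min, with 10 min or no enzyme–compound preincubation.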

cruzain [1] = target: T2, cruzain (Trypanosoma cruzi, UniProt P25779); test: biochemical
T2 sequence (P25779 123-337 limits assumed): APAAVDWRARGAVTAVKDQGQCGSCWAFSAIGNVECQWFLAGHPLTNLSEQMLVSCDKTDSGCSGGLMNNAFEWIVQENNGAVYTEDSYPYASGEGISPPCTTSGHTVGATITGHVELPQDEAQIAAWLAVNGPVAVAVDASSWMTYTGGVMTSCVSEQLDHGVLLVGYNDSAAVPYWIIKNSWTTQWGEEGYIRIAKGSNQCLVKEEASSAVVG
Summary of the method: as §1

cruzain [2] = target: T2, cruzain; test: Aggregation counter-assays: cruzain inhibition at varying Triton X-100 and after pre-incubation with BSA; assay type: biochemical; set-up: Cruzain is the truncated, recombinant-expressed cruzipain 1; Brian Shoichet (University of California San Francisco); details: compound µM: MMV687246 12.5, MMV687812 3.125, MMV688179 1.563, MMV688362 3.125, MMV688466 6.25, MMV690028 25
Description: To assess the effects of the Triton X-100 concentration on cruzain inhibition, assays were performed using 0.001%, 0.01%, and 0.1% Triton X-100. To evaluate the impact of pre-incubation with bovine serum albumin (BSA), 50 µL of a solution of the compound in the assay buffer containing 0.001% of Triton X-100 was incubated with 4 mg/mL of BSA (Sigma-Aldrich) for 10′ in a 96-well plate. Next, 50 µL of a solution containing circa 2 nM of cruzain in the same buffer was added to each well and incubated for another 10′. Finally, 100 µL of a solution of 5 µM Z-FR-AMC in the same buffer was added to each well and the fluorescence was immediately read. The final compound concentration varies and was selected to be near the compound IC50.
To investigate if inhibition was due to colloidal aggregation, a common cause of unspecific enzyme inhibition in in vitro assays, we employed two well-established experiments: the comparison of percentages of inhibition at varying Triton X-100 concentrations and the effect of compound pre-incubation with BSA on the percentage of inhibition. […] Pre-incubating a compound that aggregates with BSA saturates the protein-binding capacity of the aggregate.

[3] = IC50 (µM ± SEM %) TbrCatL 0′, no pre-incubation
[4] = IC50 (µM ± SEM %) TbrCatL 10′ inc, 10′ pre-incubation
[5] = read-out: Inhibition at 5 µM (Mean ± SEM %) TbrCatL 0′
[6] = read-out: Inhibition at 5 µM (Mean ± SEM %) TbrCatL 10′ inc
[7] = read-out: Inhibition at 100 µM (Mean ± SEM %) TbrCatL 0′
[8] = read-out: Inhibition at 100 µM (Mean ± SEM %) TbrCatL 10′ inc
[9] = IC50 (µM ± SEM %) Cruzain 0′, no pre-incubation
[10] = IC50 (µM ± SEM %) Cruzain 10′ inc, 10′ pre-incubation
[11] = read-out: Inhibition at 5 µM (Mean ± SEM %) Cruzain 0′, 5 µM, no pre-incubation, initial screening
[12] = read-out: Inhibition at 5 µM (Mean ± SEM %) Cruzain 10′ inc, 5 µM, 10′ pre-incubation, initial screening
[13] = read-out: Inhibition at 100 µM (Mean ± SEM %) Cruzain 0′, 100 µM, no pre-incubation, solid samples
[14] = read-out: Inhibition at 100 µM (Mean ± SEM %) Cruzain 10′ inc, 100 µM, 10′ pre-incubation, solid samples
[15] = read-out: Inhibition of cruzain or TbrCatL (either enzyme) in the initial screening, 5 µM, either cruzain or TbrCatL, with or without pre-incubation
[16] = 0’ (pre-incubation time), sheet "Screening results"
[17] = 10’ (pre-incubation time), sheet "Screening results"
[18] = 0’ (pre-incubation time), Pathogen Box screening results
[19] = 10’ (pre-incubation time), Pathogen Box screening results

T1 sequence (Q95PM0 entry or part of it): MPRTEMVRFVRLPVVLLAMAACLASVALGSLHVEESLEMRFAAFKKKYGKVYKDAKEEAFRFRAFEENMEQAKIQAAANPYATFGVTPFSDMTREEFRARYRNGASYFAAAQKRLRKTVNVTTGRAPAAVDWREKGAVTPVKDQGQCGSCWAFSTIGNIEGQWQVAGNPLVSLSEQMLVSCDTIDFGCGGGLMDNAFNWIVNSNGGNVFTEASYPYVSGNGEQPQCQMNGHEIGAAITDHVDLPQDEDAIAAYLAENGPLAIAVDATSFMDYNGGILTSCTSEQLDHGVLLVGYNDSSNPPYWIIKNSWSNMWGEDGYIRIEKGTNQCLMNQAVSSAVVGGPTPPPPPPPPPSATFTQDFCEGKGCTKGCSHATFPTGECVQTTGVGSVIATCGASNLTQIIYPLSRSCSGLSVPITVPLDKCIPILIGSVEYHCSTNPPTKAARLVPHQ

Cn1ccnc1CNCCS(=O)(=O)c1cccc(Nc2ccc(-c3cccc(F)c3)cn2)c1 [MMV688466]
IC50 (TbrCatL; [3]): 4 ± 1 µM | IC50 (TbrCatL; [4]): 11 ± 4 µM | inhibition at 5 µM (TbrCatL; [5]): 29 ± 2% | inhibition at 5 µM (TbrCatL; [6]): 54 ± 8% | inhibition at 100 µM (TbrCatL; [7]): 96 ± 3% | inhibition at 100 µM (TbrCatL; [8]): 100% | IC50 (cruzain [1]; [9]): 9 ± 1 µM | IC50 (cruzain [1]; [10]): 25 ± 6 µM | inhibition at 5 µM (cruzain [1]; [11]): 41 ± 2% | inhibition at 5 µM (cruzain [1]; [12]): 49 ± 5% | inhibition at 100 µM (cruzain [1]; [13]): 58 ± 27% | inhibition at 100 µM (cruzain [1]; [14]): 98 ± 1% | inhibition at 5 µM (cruzain [1]; [15]): ≥ 40% | % Cruzain Inhibition (Mean ± SEM) 0.001% Triton + BSA 1 mg/mL (cruzain [2]): 96 ± 3% | % Cruzain Inhibition (Mean ± SEM) 0.001% Triton X-100 (cruzain [2]): 83 ± 3% | % Cruzain Inhibition (Mean ± SEM) 0.01% Triton X-100 (cruzain [2]; 0.01% Triton X-100): 32 ± 5% | % Cruzain Inhibition (Mean ± SEM) 0.1% Triton X-100 (cruzain [2]; 0.1% Triton X-100): 82 ± 11%

COc1ccc(C2=NN(C3CCCCCC3)C(=O)C2(C)C)cc1OCCCCOc1ccc(-c2nn[nH]n2)cc1 [MMV690028]
IC50 (TbrCatL; [3]): 18 ± 7 µM | IC50 (TbrCatL; [4]): 27 ± 3 µM | inhibition at 5 µM (TbrCatL; [5]): 49 ± 4% | inhibition at 5 µM (TbrCatL; [6]): 23 ± 4% | inhibition at 100 µM (TbrCatL; [7]): 100% | inhibition at 100 µM (TbrCatL; [8]): 88 ± 3% | IC50 (cruzain [1]; [9]): 10 ± 3 µM | IC50 (cruzain [1]; [10]): 13 ± 5 µM | inhibition at 5 µM (cruzain [1]; [11]): 34 ± 8% | inhibition at 5 µM (cruzain [1]; [12]): 27 ± 4% | inhibition at 100 µM (cruzain [1]; [13]): 100% | inhibition at 100 µM (cruzain [1]; [14]): 100% | inhibition at 5 µM (cruzain [1]; [15]): ≥ 40% | % Cruzain Inhibition (Mean ± SEM) 0.001% Triton + BSA 1 mg/mL (cruzain [2]): 91 ± 7% | % Cruzain Inhibition (Mean ± SEM) 0.001% Triton X-100 (cruzain [2]): 69 ± 14%

Cc1cc(OCC(=O)Nc2ccc(C(C)C)cc2)n(C)c(=O)c1C#N [MMV1198433]
TbrCatL 0’ Inhibition (TbrCatL; [16]): -5% | TbrCatL 10’ Inhibition (TbrCatL; [17]): -4.5% | Cruzain 0’ Inhibition (cruzain [1]; [16]): -4.6% | Cruzain 10’ Inhibition (cruzain [1]; [17]): -6%

CCOC(=O)c1noc(N)c1-c1ccccc1 [MMV1236379]
TbrCatL Inhibition 0’ (TbrCatL; [18]): -9% | TbrCatL Inhibition 10’ (TbrCatL; [19]): -1.7% | Cruzain Inhibition 0’ (cruzain [1]; [18]): -8% | Cruzain Inhibition 10’ (cruzain [1]; [19]): 7%
